Measured values as given in the kinase profiling compilation of Christmann-Franck et al. (2016).

Columns and labels:
Assay in all cases: KINOMEscan competition binding
Conditions in all cases: compound 10.0 µM
[1] = biological target: STK17A (human) (UniProt Q9UEE5)
[2] = biological target: ULK3 (human) (UniProt Q6PHR2)
[3] = biological target: STK38 (human) (UniProt Q15208)
[4] = biological target: ITK (human) (UniProt Q08881)
[5] = biological target: MAPKAPK2 (human) (UniProt P49137)
[6] = biological target: STK17B (human) (UniProt O94768)
[7] = biological target: RPS6KA3 KD1 (human) (UniProt P51812)
[8] = biological target: ULK2 (human) (UniProt Q8IYT8)
[9] = biological target: MAP3K4 (human) (UniProt Q9Y6R4)
[10] = biological target: RIPK1 (human) (UniProt Q13546)
Sequence of RIPK1 (human) (Q13546 whole entry, looked up): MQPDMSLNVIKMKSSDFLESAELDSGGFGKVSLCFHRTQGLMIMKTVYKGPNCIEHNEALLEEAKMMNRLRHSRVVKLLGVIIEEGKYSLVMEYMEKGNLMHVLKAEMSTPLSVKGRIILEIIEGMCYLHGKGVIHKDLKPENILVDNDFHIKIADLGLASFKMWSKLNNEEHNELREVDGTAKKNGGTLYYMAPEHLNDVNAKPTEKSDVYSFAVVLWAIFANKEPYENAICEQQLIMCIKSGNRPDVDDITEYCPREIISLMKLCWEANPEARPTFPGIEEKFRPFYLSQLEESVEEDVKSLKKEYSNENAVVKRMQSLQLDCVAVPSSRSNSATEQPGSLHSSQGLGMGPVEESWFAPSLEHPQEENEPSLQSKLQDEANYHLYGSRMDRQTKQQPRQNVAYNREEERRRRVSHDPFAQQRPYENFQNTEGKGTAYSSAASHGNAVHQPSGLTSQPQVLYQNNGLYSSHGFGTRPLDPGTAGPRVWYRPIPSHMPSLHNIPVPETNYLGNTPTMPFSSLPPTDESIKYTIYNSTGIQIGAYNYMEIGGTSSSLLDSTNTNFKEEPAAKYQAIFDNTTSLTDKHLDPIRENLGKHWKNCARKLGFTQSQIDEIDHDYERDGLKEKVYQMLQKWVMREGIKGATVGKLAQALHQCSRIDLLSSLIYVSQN

[11] = test system: EGFR (human), P00533 [A750P; 747-749 del]
[12] = biological target: ANKK1 (human) (UniProt Q8NFD2)
[13] = biological target: STK16 (human) (UniProt O75716)
[14] = biological target: MAP4K1 (human) (UniProt Q92918)
[15] = biological target: PIK3CD (human) (UniProt O00329)
[16] = biological target: INSRR (human) (UniProt P14616)
[17] = biological target: EPHB2 (human) (UniProt P29323)
[18] = biological target: CAMK2B (human) (UniProt Q13554)
[19] = test system: PIK3CA (human), P42336 [E545A]
[20] = biological target: SRPK2 (human) (UniProt P78362)
[21] = biological target: CaMK1 (human) (UniProt Q14012)
[22] = biological target: TIE1 (human) (UniProt P35590)
[23] = biological target: CDK13 (human) (UniProt Q14004)
Sequence of CDK13 (human) (Q14004 whole entry, looked up): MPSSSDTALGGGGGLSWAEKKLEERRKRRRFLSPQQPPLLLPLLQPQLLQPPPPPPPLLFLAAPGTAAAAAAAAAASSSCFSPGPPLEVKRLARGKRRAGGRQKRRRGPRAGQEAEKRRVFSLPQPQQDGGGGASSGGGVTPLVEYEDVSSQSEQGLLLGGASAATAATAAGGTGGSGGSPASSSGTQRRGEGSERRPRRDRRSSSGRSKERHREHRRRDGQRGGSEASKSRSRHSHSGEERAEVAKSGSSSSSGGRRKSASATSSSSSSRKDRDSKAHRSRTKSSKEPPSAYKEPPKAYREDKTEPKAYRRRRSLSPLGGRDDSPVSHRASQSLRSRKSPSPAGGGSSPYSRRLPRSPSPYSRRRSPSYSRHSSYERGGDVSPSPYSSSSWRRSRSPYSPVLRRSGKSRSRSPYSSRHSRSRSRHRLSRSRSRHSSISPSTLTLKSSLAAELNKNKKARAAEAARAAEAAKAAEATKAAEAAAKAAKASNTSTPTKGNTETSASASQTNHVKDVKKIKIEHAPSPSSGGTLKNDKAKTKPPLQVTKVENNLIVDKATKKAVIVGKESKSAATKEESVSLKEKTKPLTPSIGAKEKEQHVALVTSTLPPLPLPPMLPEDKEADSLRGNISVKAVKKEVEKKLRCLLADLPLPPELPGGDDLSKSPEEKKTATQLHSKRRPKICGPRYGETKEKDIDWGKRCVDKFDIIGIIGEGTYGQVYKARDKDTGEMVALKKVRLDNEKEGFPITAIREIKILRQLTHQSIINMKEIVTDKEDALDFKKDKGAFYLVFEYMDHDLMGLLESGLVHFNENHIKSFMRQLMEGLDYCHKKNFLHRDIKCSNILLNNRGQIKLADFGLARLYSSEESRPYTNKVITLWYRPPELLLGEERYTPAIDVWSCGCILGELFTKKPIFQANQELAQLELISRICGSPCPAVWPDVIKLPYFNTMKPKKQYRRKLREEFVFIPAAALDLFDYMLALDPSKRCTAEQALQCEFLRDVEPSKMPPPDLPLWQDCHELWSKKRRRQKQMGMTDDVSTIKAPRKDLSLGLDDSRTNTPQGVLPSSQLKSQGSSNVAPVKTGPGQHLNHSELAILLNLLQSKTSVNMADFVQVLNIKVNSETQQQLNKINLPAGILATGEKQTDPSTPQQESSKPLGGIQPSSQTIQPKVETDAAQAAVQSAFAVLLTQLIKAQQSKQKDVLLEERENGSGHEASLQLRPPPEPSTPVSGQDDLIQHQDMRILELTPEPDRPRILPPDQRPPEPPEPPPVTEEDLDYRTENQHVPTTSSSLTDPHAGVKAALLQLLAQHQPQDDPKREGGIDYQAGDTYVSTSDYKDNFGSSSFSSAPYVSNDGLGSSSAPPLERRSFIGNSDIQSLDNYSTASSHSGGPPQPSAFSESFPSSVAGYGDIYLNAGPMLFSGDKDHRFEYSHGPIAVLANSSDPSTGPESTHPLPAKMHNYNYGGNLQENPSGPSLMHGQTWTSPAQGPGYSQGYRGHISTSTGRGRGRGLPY

[24] = test system: RET (human), P07949 [M918T]
[25] = biological target: MST1R (human) (UniProt Q04912)
[26] = biological target: PIM3 (human) (UniProt Q86V86)
[27] = biological target: SGK3 (human) (UniProt Q96BR1)
[28] = biological target: AXL (human) (UniProt P30530)
Sequence of AXL (human) (P30530 whole entry, looked up): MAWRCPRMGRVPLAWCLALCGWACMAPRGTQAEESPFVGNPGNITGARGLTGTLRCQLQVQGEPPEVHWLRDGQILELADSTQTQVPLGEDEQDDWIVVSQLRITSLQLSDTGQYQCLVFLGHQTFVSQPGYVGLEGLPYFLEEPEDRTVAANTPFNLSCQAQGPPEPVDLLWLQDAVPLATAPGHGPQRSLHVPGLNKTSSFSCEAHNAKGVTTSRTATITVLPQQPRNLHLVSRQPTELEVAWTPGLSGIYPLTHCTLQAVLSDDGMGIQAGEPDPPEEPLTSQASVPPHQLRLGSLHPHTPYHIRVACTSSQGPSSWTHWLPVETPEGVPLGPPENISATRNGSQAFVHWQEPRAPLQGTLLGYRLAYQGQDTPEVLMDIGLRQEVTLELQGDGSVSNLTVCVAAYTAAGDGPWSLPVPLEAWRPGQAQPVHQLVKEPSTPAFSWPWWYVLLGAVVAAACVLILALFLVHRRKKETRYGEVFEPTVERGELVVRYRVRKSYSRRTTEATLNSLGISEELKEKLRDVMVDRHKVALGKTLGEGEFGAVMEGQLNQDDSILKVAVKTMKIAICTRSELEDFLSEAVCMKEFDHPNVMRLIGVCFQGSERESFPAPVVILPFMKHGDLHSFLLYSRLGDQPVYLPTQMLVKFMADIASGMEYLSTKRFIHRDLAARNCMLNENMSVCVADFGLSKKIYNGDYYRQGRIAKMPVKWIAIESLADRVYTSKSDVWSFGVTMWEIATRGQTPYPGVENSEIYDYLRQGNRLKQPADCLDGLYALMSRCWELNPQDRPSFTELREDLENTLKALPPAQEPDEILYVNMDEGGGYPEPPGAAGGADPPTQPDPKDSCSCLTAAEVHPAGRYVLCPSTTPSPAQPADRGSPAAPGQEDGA

[29] = biological target: CDKL5 (human) (UniProt O76039)
[30] = biological target: RIPK4 (human) (UniProt P57078)
[31] = biological target: PIK3CB (human) (UniProt P42338)
[32] = biological target: LCK (human) (UniProt P06239)
Sequence of LCK (human) (P06239 whole entry, looked up): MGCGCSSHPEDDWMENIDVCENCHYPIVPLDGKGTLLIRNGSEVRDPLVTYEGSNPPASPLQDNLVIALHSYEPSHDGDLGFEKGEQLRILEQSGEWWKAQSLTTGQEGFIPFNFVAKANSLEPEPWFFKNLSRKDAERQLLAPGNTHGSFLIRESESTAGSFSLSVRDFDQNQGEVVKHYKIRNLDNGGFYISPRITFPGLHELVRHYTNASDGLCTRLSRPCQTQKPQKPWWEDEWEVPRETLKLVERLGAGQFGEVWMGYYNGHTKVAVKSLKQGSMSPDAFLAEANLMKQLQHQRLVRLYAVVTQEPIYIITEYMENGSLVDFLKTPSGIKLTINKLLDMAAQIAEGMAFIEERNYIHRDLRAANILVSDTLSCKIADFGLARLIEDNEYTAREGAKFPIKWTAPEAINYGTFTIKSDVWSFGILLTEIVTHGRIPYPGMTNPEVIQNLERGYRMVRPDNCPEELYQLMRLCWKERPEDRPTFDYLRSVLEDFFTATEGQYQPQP

[33] = biological target: CAMK2D (human) (UniProt Q13557)
Sequence of CAMK2D (human) (Q13557 whole entry, looked up): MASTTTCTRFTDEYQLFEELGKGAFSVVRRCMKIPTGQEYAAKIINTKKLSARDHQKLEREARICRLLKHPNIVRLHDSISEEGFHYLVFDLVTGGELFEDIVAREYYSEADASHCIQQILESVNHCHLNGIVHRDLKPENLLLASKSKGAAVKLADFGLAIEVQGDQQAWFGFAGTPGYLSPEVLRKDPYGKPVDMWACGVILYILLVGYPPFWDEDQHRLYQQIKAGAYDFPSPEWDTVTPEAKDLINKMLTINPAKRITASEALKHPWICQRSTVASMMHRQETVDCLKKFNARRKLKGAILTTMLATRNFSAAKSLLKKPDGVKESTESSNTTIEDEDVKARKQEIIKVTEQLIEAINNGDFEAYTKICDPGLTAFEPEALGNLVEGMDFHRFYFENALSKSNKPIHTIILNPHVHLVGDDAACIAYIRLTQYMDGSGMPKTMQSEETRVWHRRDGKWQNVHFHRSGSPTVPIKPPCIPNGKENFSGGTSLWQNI

[34] = biological target: STK10 (human) (UniProt O94804)
[35] = biological target: CSNK1A1L (human) (UniProt Q8N752)
[36] = biological target: TXK (human) (UniProt P42681)
[37] = biological target: ICK (human) (UniProt Q9UPZ9)
[38] = biological target: MAP3K6 (human) (UniProt O95382)
[39] = biological target: RPS6KA4 KD1 (human) (UniProt O75676)
[40] = biological target: EIF2AK2 (human) (UniProt P19525)
[41] = biological target: TTK (human) (UniProt P33981)

Sequence of ULK3 (human) (Q6PHR2 whole entry, looked up): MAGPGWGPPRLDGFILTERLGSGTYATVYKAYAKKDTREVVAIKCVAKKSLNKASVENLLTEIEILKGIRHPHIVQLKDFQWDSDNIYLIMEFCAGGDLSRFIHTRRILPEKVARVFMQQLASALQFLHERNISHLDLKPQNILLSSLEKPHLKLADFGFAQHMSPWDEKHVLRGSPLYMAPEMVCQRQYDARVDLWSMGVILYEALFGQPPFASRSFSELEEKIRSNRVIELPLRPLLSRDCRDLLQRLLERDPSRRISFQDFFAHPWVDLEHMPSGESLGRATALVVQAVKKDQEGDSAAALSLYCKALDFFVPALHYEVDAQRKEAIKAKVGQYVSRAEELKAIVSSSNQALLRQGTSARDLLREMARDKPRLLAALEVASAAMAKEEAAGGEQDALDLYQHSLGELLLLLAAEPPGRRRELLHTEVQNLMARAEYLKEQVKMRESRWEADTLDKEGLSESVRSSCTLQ
Sequence of MAPKAPK2 (human) (P49137 whole entry, looked up): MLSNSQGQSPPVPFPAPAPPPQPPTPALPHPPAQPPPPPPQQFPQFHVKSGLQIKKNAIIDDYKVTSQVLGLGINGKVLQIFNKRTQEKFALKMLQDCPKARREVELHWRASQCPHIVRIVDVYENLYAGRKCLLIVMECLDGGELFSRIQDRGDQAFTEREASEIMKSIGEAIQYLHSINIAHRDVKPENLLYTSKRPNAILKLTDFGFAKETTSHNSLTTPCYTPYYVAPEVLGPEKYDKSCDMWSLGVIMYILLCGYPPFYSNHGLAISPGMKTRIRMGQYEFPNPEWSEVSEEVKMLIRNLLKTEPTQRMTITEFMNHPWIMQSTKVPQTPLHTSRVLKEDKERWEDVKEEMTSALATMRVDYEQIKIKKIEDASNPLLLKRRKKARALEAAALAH

## CCC(=O)N1CCN(c2ccc(-n3c(=O)ccc4cnc5ccc(-c6cnc7ccccc7c6)cc5c43)cc2C(F)(F)F)CC1
[1]
  kinase still bound, per cent of control: 93%
[2]
  kinase still bound, per cent of control: 100%
[3]
  kinase still bound, per cent of control: 100%
[4]
  kinase still bound, per cent of control: 100%
[5]
  kinase still bound, per cent of control: 100%
[6]
  kinase still bound, per cent of control: 67%
[7]
  kinase still bound, per cent of control: 38%
[8]
  kinase still bound, per cent of control: 75%
[9]
  kinase still bound, per cent of control: 47%
[10]
  kinase still bound, per cent of control: 1.9%
[11]
  kinase still bound, per cent of control: 100%
[12]
  kinase still bound, per cent of control: 93%
[13]
  kinase still bound, per cent of control: 18%
[14]
  kinase still bound, per cent of control: 30%
[15]
  kinase still bound, per cent of control: 51%
[16]
  kinase still bound, per cent of control: 100%
[17]
  kinase still bound, per cent of control: 100%
[18]
  kinase still bound, per cent of control: 100%
[19]
  kinase still bound, per cent of control: 1%
[20]
  kinase still bound, per cent of control: 100%
[21]
  kinase still bound, per cent of control: 50%
[22]
  kinase still bound, per cent of control: 100%
[23]
  per cent of control: 80%
[24]
  kinase still bound, per cent of control: 51%
[25]
  kinase still bound, per cent of control: 55%
[26]
  kinase still bound, per cent of control: 96%
[27]
  kinase still bound, per cent of control: 100%
[28]
  kinase still bound, per cent of control: 46%
[29]
  per cent of control: 100%
[30]
  kinase still bound, per cent of control: 100%
[31]
  kinase still bound, per cent of control: 65%
[32]
  kinase still bound, per cent of control: 77%
[33]
  kinase still bound, per cent of control: 72%
[34]
  kinase still bound, per cent of control: 79%
[35]
  kinase still bound, per cent of control: 81%
[36]
  kinase still bound, per cent of control: 54%
[37]
  kinase still bound, per cent of control: 100%
[38]
  kinase still bound, per cent of control: 100%
[39]
  kinase still bound, per cent of control: 100%
[40]
  kinase still bound, per cent of control: 88%
[41]
  kinase still bound, per cent of control: 9.6%
